Patent US10487056B2, “Small molecule androgen receptor inhibitors and methods of use thereof” (GEORGETOWN UNIVERSITY, priority 2015, dated 2019)

Legend:
Format in all cases: cell-based
AR and AR-V7 [1] = assay: Immunofluorescence staining of AR and AR-V7 in 22Rv1 cells; details: SH-I-125 1 μM, 24 hours
Procedure: […]. Androgen receptor (AR) and PSA expression levels were assessed.
(§1) Immunofluorescence staining was performed as described in Amin et al., Mol. Cancer Ther., 13:341-52 (2014).
22Rv1 cells represent a commonly observed castration-resistant phenotype, including androgen-independent growth and the expression of AR splice variants, such as AR-V7. […]. […] […].

[2] = MTT cell viability assay, PrEC cells; details: human, non-tumorigenic primary prostate epithelial cells (PrEC), similar range of doses, read-out: cell viability retained
Procedure: Cells were treated in the manner indicated below for the specified period of time. MTT assay was performed as described in Amin et al., Mol. Cancer Ther., 13:341-52 (2014).
(§2) To determine the effects of SH-I-125 on prostate cancer cell growth, 22Rv1 cells were treated with SH-I-125 and cell viability was measured after a period of 3 days. […]. In comparison, non-tumorigenic primary prostate epithelial cells (PrEC) retained 80% viability in the presence of a similar range of doses of SH-I-125, showing that tumorigenic cells are more susceptible to the growth inhibitory properties of SH-I-125 compared to non-tumorigenic cells (FIG. 8B). […] Staurosporine was used as a positive control for cell death induction in live and dead assays (FIG. 9C).

22Rv1 cells [3] = assay: Cleaved caspase-3 and cleaved PARP by Western blot and immunofluorescence, 22Rv1 cells; details: SH-I-125 1 μM, three days
Procedure: 22Rv1 cells were treated with SH-I-125 (1 μM) for one, two, or three days, and caspase 3/7 activity was measured using Caspase-Glo 3/7 substrates. […] Data represent mean of three independent experiments with quadruplicate samples; bars, SEM. ***, p value <0.001 determined by ANOVA.
The presence of cleaved caspase-3 and cleaved PARP were determined. The cells were counterstained with 4′,6-diamidino-2-phenylindole (DAPI).
Western blotting was performed as described in Amin et al., Mol. Cancer Ther., 13:341-52 (2014). The following antibodies were used: Androgen receptor (N-20; Santa Cruz Biotechnology; Dallas, Tex.), PSA (A0562; Dako; Carpinteria, Calif.), β-actin (SC-47778; Santa Cruz Biotechnology), AR-V7 (AG10008; Precision Antibody; Columbia, Md.), cleaved PARP (9541; Cell Signaling Technologies, Danvers, Mass.), and cleaved caspase-3 (9664; Cell Signaling Technologies, Danvers, Mass.).
It was determined whether caspase activity and apoptosis were induced in 22Rv1 cells upon SH-I-125 treatment. […] Staurosporine was used as a positive control for apoptosis induction (FIG. 10B).

22Rv1 cells [4] = assay: Live and dead cell staining, 22Rv1 cells; details: SH-I-125 1 μM, 3 days
Procedure: Live and dead cells were determined using a Cell Viability/Cytotoxicity Assay kit (Biotium Inc.; Hayward, Calif.).
as §2

AR [5] = molecular target: T1, AR (Homo sapiens, UniProt P10275); assay: VCaP-ARE-luc androgen-response element luciferase reporter assay; details: DHT 1 nM, 24 hours
T1 construct: Androgen-dependent VCaP cells were made to stably express an androgen-response element luciferase reporter (VCaP-ARE-luc); host or cells: VCaP / VCaP-ARE-luc
T1 sequence (P10275 1-920): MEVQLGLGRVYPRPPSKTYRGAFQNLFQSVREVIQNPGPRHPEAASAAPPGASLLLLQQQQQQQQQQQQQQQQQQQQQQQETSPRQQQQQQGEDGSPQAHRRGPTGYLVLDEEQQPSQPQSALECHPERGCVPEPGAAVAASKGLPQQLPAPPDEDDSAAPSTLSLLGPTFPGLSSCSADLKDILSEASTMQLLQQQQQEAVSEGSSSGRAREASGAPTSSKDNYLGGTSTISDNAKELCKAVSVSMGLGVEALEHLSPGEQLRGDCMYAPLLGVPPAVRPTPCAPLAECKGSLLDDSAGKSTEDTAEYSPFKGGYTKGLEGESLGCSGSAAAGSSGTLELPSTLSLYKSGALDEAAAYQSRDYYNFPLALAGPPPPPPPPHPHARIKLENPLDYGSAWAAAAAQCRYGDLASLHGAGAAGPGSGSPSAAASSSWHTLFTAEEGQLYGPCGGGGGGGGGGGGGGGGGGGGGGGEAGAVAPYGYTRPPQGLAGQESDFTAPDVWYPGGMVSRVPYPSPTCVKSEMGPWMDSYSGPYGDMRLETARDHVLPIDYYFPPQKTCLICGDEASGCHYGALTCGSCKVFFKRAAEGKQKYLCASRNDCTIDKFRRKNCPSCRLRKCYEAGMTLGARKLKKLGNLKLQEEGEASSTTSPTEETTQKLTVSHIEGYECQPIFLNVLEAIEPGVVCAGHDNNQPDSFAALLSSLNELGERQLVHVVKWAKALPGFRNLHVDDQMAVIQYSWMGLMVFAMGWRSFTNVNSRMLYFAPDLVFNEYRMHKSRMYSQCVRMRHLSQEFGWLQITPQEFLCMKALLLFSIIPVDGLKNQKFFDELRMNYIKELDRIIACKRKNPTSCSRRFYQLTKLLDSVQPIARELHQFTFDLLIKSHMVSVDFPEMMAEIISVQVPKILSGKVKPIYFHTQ
Procedure: VCaP and CWR22Rv1 (referred to as 22Rv1) cells were transduced with ARE-luciferase Cignal Lenti Pathway Reporter (Qiagen; Valencia, Calif.) and cultured as described above in the presence of 1 μg/mL puromycin. Following antibiotic selection, cells stably expressing ARE-luciferase were isolated, cloned and cultured to generate a stable ARE-reporter cell lines.
Androgen-dependent VCaP cells were made to stably express an androgen-response element luciferase reporter (VCaP-ARE-luc).

AR [6] = assay: Immunofluorescence staining of AR in 22Rv1-MDVR cells; details: MDV3100 10 μM, ARN509 10 μM or SH-I-125 1 μM, 24 hours
Procedure: […]. AR and AR-V7 expression levels were assessed.
as §1

AR and AR-V7 [7] = assay: Quantitative RT-PCR of AR and AR-V7 mRNA in 22Rv1 cells; details: SH-I-125 1 μM, 1-3 days, normalized to GAPDH
Procedure: FIG. 12D is a graph showing the mRNA expression of AR and AR-V7 after treating 22Rv1 cells with SH-I-125 (1 μM) for 24 and 72 hrs. The AR and AR-V7 expression levels were assessed by qRTPCR and normalized to GAPDH expression levels.
Quantitative RT-PCR was performed using the protocol and the primers as described in Amin et al., Mol. Cancer Ther., 13:341-52 (2014).
To establish a mechanism by which SH-I-125 caused a decline in AR and AR-V7 levels, the relative expression of AR and AR-V7 in 22Rv1 cells that had been treated with SH-I-125 for a period of 1-3 days was measured. […] To determine whether proteasomal mechanisms are responsible for the decline in AR and AR-V7 levels, 22Rv1 cells were treated with 5 μM SH-I-125 for a period of 48 hours in the presence of proteasome inhibitor, MG132.

COc1ccc2c(c1)[nH]c1c(C)c(OS(=O)(=O)c3cccc4ccccc34)ccc12 [SH-I-125, 7-methoxy-1-methyl-9H-carbazol-2-yl naphthalene-1-sulfonate]
nuclear localization of AR and AR-V7 (AR and AR-V7 [1]): decreased the nuclear localization of AR and AR-V7 | viability at 3 days [2]: 80% | cleaved caspase-3 and cleavage of PARP (22Rv1 cells [3]): presence of cleaved caspase-3 and accompanied by the cleavage of PARP | live and dead cell staining (22Rv1 cells [4]): killed 22Rv1 cells | potency relative to mahanine on AR signaling (ARE-luc) (AR [5]): more potent than mahanine | inhibition of AR transactivation (luciferase activity) (AR [5]; range of doses): comparable decline in luciferase activity | AR nuclear localization (AR [6]): decreased AR nuclear levels | AR and AR-V7 message (mRNA) levels (AR and AR-V7 [7]): did not affect the message levels
